Test results from ChEMBL document CHEMBL1177881, “Synthesis and GABAA receptor activity of A-homo analogues of neuroactive steroids” (Eur J Med Chem, 2010).

Columns and labels:
Rattus norvegicus = species on record: Rattus norvegicus; test: Displacement of [35S]TBPS from GABAA receptor in rat cerebellum at 10 uM to 1 nM after 60 mins; assay type: tissue-based
[1] = Displacement of [35S]TBPS from GABAA receptor in rat cerebellum after 60 mins; assay type: tissue-based

| Structure (SMILES) | Imax (Rattus norvegicus) [%] | IC50 [1] [nM] |
| --- | --- | --- |
| CC(=O)[C@H]1CC[C@H]2[C@@H]3CC=C4C[C@H](O)CCC[C@]4(C)[C@H]3CC[C@]12C | 50.7 | 800 |
| CC(=O)[C@H]1CC[C@H]2[C@@H]3CC[C@H]4CC[C@@H](O)CC[C@]4(C)[C@H]3CC[C@]12C | 46.2 | 1000 |
| CC(=O)[C@H]1CC[C@H]2[C@@H]3CC=C4CC[C@@H](O)CC[C@]4(C)[C@H]3CC[C@]12C | 50 | 100 |
| CC(=O)[C@H]1CC[C@H]2[C@@H]3CC=C4CC[C@H](O)CC[C@]4(C)[C@H]3CC[C@]12C | 75.6 | 1200 |
| CC(=O)[C@H]1CC[C@H]2[C@@H]3CC[C@H]4C[C@H](O)CC[C@]4(C)[C@H]3CC[C@]12C [BREXANOLONE] | 79.6 | 80 |
